Source: the NIST ThermoML archive (doi:10.1016/j.jct.2010.10.016)
Numbers after ± are expanded uncertainties.

Test: xn = mol fraction of the nth substance listed
Details: 101 kPa, Liquid; for viscosity: Capillary tube (Ostwald / Ubbelohde) method; for mass density: Pycnometric method; for speed of sound: Resonance method

C[N+](=O)[O-] [nitromethane] + COCCO
Details | mass density [kg/m3] | speed of sound [m/s] | viscosity [mPa·s]
293.15 K, x1 = 0.05 | 970.66 ± 0.49 | 1354.7 ± 2.3 | –
293.15 K, x1 = 0.0501 | – | – | 1.618 ± 0.014
293.15 K, x1 = 0.0998 | 976.62 ± 0.5 | 1351.1 ± 2.3 | –
293.15 K, x1 = 0.1024 | – | – | 1.527 ± 0.013
293.15 K, x1 = 0.2 | 989.24 ± 0.52 | 1345 ± 2.3 | –
293.15 K, x1 = 0.2162 | – | – | 1.341 ± 0.012
293.15 K, x1 = 0.2991 | – | 1340 ± 2.3 | –
293.15 K, x1 = 0.3 | 1002.64 ± 0.54 | – | –
293.15 K, x1 = 0.3003 | – | – | 1.216 ± 0.011
293.15 K, x1 = 0.4 | 1017.06 ± 0.55 | 1335.5 ± 2.3 | –
293.15 K, x1 = 0.4076 | – | – | 1.072 ± 0.01
293.15 K, x1 = 0.451 | – | – | 1.02 ± 0.009
293.15 K, x1 = 0.4997 | – | – | 0.964 ± 0.009
293.15 K, x1 = 0.4998 | – | 1331.9 ± 2.3 | –
293.15 K, x1 = 0.5 | 1032.73 ± 0.57 | – | –
293.15 K, x1 = 0.55 | – | – | 0.91 ± 0.008
293.15 K, x1 = 0.6 | 1049.94 ± 0.59 | 1329.2 ± 2.3 | –
293.15 K, x1 = 0.6026 | – | – | 0.859 ± 0.008
293.15 K, x1 = 0.6998 | – | – | 0.775 ± 0.008
293.15 K, x1 = 0.7 | 1068.86 ± 0.62 | 1327.7 ± 2.3 | –
293.15 K, x1 = 0.7991 | – | – | 0.71 ± 0.007
293.15 K, x1 = 0.8 | – | 1327.5 ± 2.3 | –
293.15 K, x1 = 0.8002 | 1089.69 ± 0.64 | – | –
293.15 K, x1 = 0.8999 | 1112.46 ± 0.65 | 1330.3 ± 2.4 | –
293.15 K, x1 = 0.9001 | – | – | 0.663 ± 0.007
293.15 K, x1 = 0.941 | – | – | 0.653 ± 0.007
293.15 K, x1 = 0.9503 | 1124.81 ± 0.66 | 1333.7 ± 2.4 | –
293.15 K, x1 = 1 | 1137.63 ± 0.66 | 1340.2 ± 2.4 | 0.648 ± 0.007
298.15 K, x1 = 0.05 | 965.94 ± 0.5 | 1338.1 ± 2.3 | –
298.15 K, x1 = 0.0506 | – | – | 1.466 ± 0.013
298.15 K, x1 = 0.0998 | 971.79 ± 0.5 | 1334.8 ± 2.3 | –
298.15 K, x1 = 0.1037 | – | – | 1.387 ± 0.012
298.15 K, x1 = 0.2 | 984.22 ± 0.52 | 1329.2 ± 2.3 | –
298.15 K, x1 = 0.2002 | – | – | 1.249 ± 0.011
298.15 K, x1 = 0.2991 | – | 1324.1 ± 2.3 | –
298.15 K, x1 = 0.3 | 997.42 ± 0.53 | – | –
298.15 K, x1 = 0.3006 | – | – | 1.118 ± 0.01
298.15 K, x1 = 0.4 | 1011.62 ± 0.55 | 1319.6 ± 2.3 | –
298.15 K, x1 = 0.4052 | – | – | 0.994 ± 0.009
298.15 K, x1 = 0.4509 | – | – | 0.944 ± 0.009
298.15 K, x1 = 0.4998 | – | 1315.6 ± 2.3 | –
298.15 K, x1 = 0.5 | 1027.07 ± 0.56 | – | –
298.15 K, x1 = 0.5016 | – | – | 0.892 ± 0.008
298.15 K, x1 = 0.5497 | – | – | 0.846 ± 0.008
298.15 K, x1 = 0.5991 | – | – | 0.8 ± 0.008
298.15 K, x1 = 0.6 | 1044.03 ± 0.58 | 1312.6 ± 2.3 | –
298.15 K, x1 = 0.694 | – | – | 0.725 ± 0.007
298.15 K, x1 = 0.7 | 1062.69 ± 0.6 | 1310.7 ± 2.3 | –
298.15 K, x1 = 0.7953 | – | – | 0.666 ± 0.007
298.15 K, x1 = 0.8 | – | 1310.6 ± 2.3 | –
298.15 K, x1 = 0.8002 | 1083.23 ± 0.62 | – | –
298.15 K, x1 = 0.8997 | – | – | 0.629 ± 0.007
298.15 K, x1 = 0.8999 | 1105.69 ± 0.65 | 1312.9 ± 2.4 | –
298.15 K, x1 = 0.9454 | – | – | 0.621 ± 0.006
298.15 K, x1 = 0.9503 | 1117.91 ± 0.66 | 1315.8 ± 2.4 | –
298.15 K, x1 = 1 | 1130.62 ± 0.67 | 1320.4 ± 2.4 | 0.619 ± 0.006
303.15 K, x1 = 0.05 | 961.25 ± 0.5 | 1321.7 ± 2.3 | –
303.15 K, x1 = 0.0585 | – | – | 1.328 ± 0.012
303.15 K, x1 = 0.0998 | 966.98 ± 0.51 | 1318.5 ± 2.3 | –
303.15 K, x1 = 0.1015 | – | – | 1.271 ± 0.011
303.15 K, x1 = 0.1989 | – | – | 1.149 ± 0.01
303.15 K, x1 = 0.2 | 979.15 ± 0.52 | 1312.9 ± 2.3 | –
303.15 K, x1 = 0.2991 | – | 1307.4 ± 2.3 | –
303.15 K, x1 = 0.3 | 992.16 ± 0.54 | – | –
303.15 K, x1 = 0.3091 | – | – | 1.02 ± 0.01
303.15 K, x1 = 0.3978 | – | – | 0.925 ± 0.009
303.15 K, x1 = 0.4 | 1006.16 ± 0.55 | 1302.5 ± 2.3 | –
303.15 K, x1 = 0.449 | – | – | 0.875 ± 0.008
303.15 K, x1 = 0.4998 | – | 1298.1 ± 2.3 | 0.828 ± 0.008
303.15 K, x1 = 0.5 | 1021.4 ± 0.57 | – | –
303.15 K, x1 = 0.5549 | – | – | 0.782 ± 0.008
303.15 K, x1 = 0.59 | – | – | 0.756 ± 0.007
303.15 K, x1 = 0.6 | 1038.1 ± 0.59 | 1294.5 ± 2.3 | –
303.15 K, x1 = 0.6977 | – | – | 0.684 ± 0.007
303.15 K, x1 = 0.7 | 1056.45 ± 0.61 | 1292.2 ± 2.3 | –
303.15 K, x1 = 0.7979 | – | – | 0.632 ± 0.007
303.15 K, x1 = 0.8 | – | 1291.7 ± 2.3 | –
303.15 K, x1 = 0.8002 | 1076.63 ± 0.63 | – | –
303.15 K, x1 = 0.8999 | 1098.72 ± 0.65 | 1293.4 ± 2.3 | –
303.15 K, x1 = 0.9037 | – | – | 0.594 ± 0.006
303.15 K, x1 = 0.9503 | 1110.81 ± 0.66 | 1295.1 ± 2.4 | –
303.15 K, x1 = 0.9508 | – | – | 0.585 ± 0.006
303.15 K, x1 = 1 | 1123.6 ± 0.67 | 1298.1 ± 2.4 | 0.584 ± 0.006
308.15 K, x1 = 0.05 | 956.53 ± 0.52 | 1310.2 ± 2.3 | –
308.15 K, x1 = 0.0671 | – | – | 1.175 ± 0.011
308.15 K, x1 = 0.0998 | 962.12 ± 0.52 | 1307.4 ± 2.3 | –
308.15 K, x1 = 0.1029 | – | – | 1.134 ± 0.011
308.15 K, x1 = 0.1995 | – | – | 1.025 ± 0.01
308.15 K, x1 = 0.2 | 974.11 ± 0.54 | 1301.4 ± 2.3 | –
308.15 K, x1 = 0.2991 | – | 1295.7 ± 2.3 | –
308.15 K, x1 = 0.3 | 986.95 ± 0.55 | – | –
308.15 K, x1 = 0.3053 | – | – | 0.917 ± 0.009
308.15 K, x1 = 0.4 | 1000.76 ± 0.56 | 1290.4 ± 2.3 | –
308.15 K, x1 = 0.4012 | – | – | 0.833 ± 0.008
308.15 K, x1 = 0.4528 | – | – | 0.792 ± 0.008
308.15 K, x1 = 0.4998 | – | 1285.6 ± 2.3 | –
308.15 K, x1 = 0.5 | 1015.8 ± 0.58 | – | –
308.15 K, x1 = 0.5078 | – | – | 0.75 ± 0.008
308.15 K, x1 = 0.5514 | – | – | 0.719 ± 0.007
308.15 K, x1 = 0.5981 | – | – | 0.689 ± 0.007
308.15 K, x1 = 0.6 | 1032.3 ± 0.59 | 1281.5 ± 2.3 | –
308.15 K, x1 = 0.6981 | – | – | 0.633 ± 0.007
308.15 K, x1 = 0.7 | 1050.38 ± 0.61 | 1278.6 ± 2.3 | –
308.15 K, x1 = 0.7954 | – | – | 0.594 ± 0.006
308.15 K, x1 = 0.8 | – | 1277.7 ± 2.3 | –
308.15 K, x1 = 0.8002 | 1070.27 ± 0.63 | – | –
308.15 K, x1 = 0.8985 | – | – | 0.572 ± 0.006
308.15 K, x1 = 0.8999 | 1092.11 ± 0.66 | 1278.6 ± 2.3 | –
308.15 K, x1 = 0.9383 | – | – | 0.569 ± 0.006
308.15 K, x1 = 0.9503 | 1104.13 ± 0.67 | 1279.6 ± 2.3 | –
308.15 K, x1 = 1 | 1116.86 ± 0.67 | 1281.2 ± 2.3 | 0.563 ± 0.006
313.15 K, x1 = 0.0498 | – | – | 1.055 ± 0.01
313.15 K, x1 = 0.05 | 951.39 ± 0.53 | 1293.9 ± 2.3 | –
313.15 K, x1 = 0.0998 | 956.87 ± 0.53 | 1291.1 ± 2.3 | –
313.15 K, x1 = 0.1101 | – | – | 0.999 ± 0.01
313.15 K, x1 = 0.2 | 968.71 ± 0.54 | 1285.4 ± 2.3 | –
313.15 K, x1 = 0.2081 | – | – | 0.911 ± 0.009
313.15 K, x1 = 0.2991 | – | 1279.7 ± 2.3 | –
313.15 K, x1 = 0.3 | 981.39 ± 0.55 | – | –
313.15 K, x1 = 0.3023 | – | – | 0.835 ± 0.008
313.15 K, x1 = 0.4 | 995.04 ± 0.56 | 1274.2 ± 2.3 | –
313.15 K, x1 = 0.4004 | – | – | 0.762 ± 0.008
313.15 K, x1 = 0.4571 | – | – | 0.722 ± 0.007
313.15 K, x1 = 0.4998 | – | 1269.3 ± 2.3 | –
313.15 K, x1 = 0.5 | 1009.9 ± 0.57 | – | –
313.15 K, x1 = 0.5015 | – | – | 0.693 ± 0.007
313.15 K, x1 = 0.5566 | – | – | 0.659 ± 0.007
313.15 K, x1 = 0.599 | – | – | 0.636 ± 0.007
313.15 K, x1 = 0.6 | 1026.19 ± 0.59 | 1265.1 ± 2.3 | –
313.15 K, x1 = 0.6995 | – | – | 0.589 ± 0.006
313.15 K, x1 = 0.7 | 1044.07 ± 0.6 | 1262.1 ± 2.3 | –
313.15 K, x1 = 0.8 | – | 1260.9 ± 2.3 | 0.562 ± 0.006
313.15 K, x1 = 0.8002 | 1063.69 ± 0.62 | – | –
313.15 K, x1 = 0.8851 | – | – | 0.555 ± 0.006
313.15 K, x1 = 0.8999 | 1085.24 ± 0.65 | 1261.5 ± 2.3 | –
313.15 K, x1 = 0.9387 | – | – | 0.553 ± 0.006
313.15 K, x1 = 0.9503 | 1097.15 ± 0.67 | 1262.2 ± 2.3 | –
313.15 K, x1 = 1 | 1109.87 ± 0.68 | 1262.8 ± 2.4 | 0.545 ± 0.006
